Reference: patent publication US4500526A, “Cephalosporin derivatives” (Bristol-Myers Company, priority 1983, dated 1985)
Converted amounts (≈) assume the structure as drawn. Where two headings read alike, the source gives them in different places.

Key:
[1] = test system: N. gonorrhoeae (5); assay: In vitro activity against fastidious bacteria, two-fold serial agar dilution; type: cell-based; details: Neisseria gonorrhoeae, read-out: Geometric Mean of MIC
Procedure: (§1) The in vitro activity of some of the preferred compounds against 30 strains of fastidious bacteria was determined by the two-fold serial agar dilution method in Gonococcus agar (GC agar), and the results are shown in Table 3.

[2] = test system: S. pyogenes (5 strains); assay: as above; type: cell-based; details: Streptococcus pyogenes; GC agar; read-out: Geometric Mean of MIC
Procedure: as §1

[3] = test system: H. influenzae (3) (ampicillin resistant); assay: as above; type: cell-based; details: Haemophilus influenzae, read-out: Geometric Mean of MIC
Procedure: as §1

[4] = test system: N. meningitidis (5); assay: as above; type: cell-based; details: Neisseria meningitidis, read-out: Geometric Mean of MIC
Procedure: as §1

[5] = test system: S. pneumoniae (5); assay: as above; type: cell-based; details: Streptococcus pneumoniae; GC agar; read-out: Geometric Mean of MIC
Procedure: as §1

[6] = Solubility in water; type: physicochemical
Procedure: A more soluble form of Compound Ia was prepared as follows. […] Powdered NaHCO3 was added in small portions, with stirring. A clear solution was obtained after adding 5.0 mg of NaHCO3 and the indicated pH then was 6.0. After filtration through a Millipore membrane filter to remove they insoluble impurities, the filtrate was lyophilized to give 245 mg of a water-soluble form of Compound Ia, mp 165° C. Estimated purity 80% (by HPLC). The sample was completely soluble in water to give a 25% solution.
To a stirred solution of diphenylmethyl 7-[(Z)-2-t-butoxycarbonylprop-2-oxyimino)-2-(2-tritylaminothiazol-4-yl)-acetamido]-3-iodomethyl-3-cephem-4-carboxylate [VIId'] (700 mg, 0.66 mmole) in 3 mL of DMSO, was added thiazolo[4,5-c]pyridine (115 mg, 0.84 mmole) in two portions and the mixture was stirred for 1.25 hours at room temperature. The reaction mixture was diluted with ether (150 mL) to separate an oily product, which was washed again with ether. The residue was dissolved in methylene chloride (100 mL) and the solution was filtered and evaporated to give 655 mg of the blocked product [XIIId']. The yellow product (630 mg) was suspended in anisole (1 mL) and, with ice cooling, was treated with a mixture of TFA (10 mL) and water (0.5 mL). The mixture was stirred for 20 minutes with ice cooling and then for 1 hour at room temperature. After evaporation of the mixture below 30° C., the residue was triturated with isopropyl ether (50 mL). The precipitate was collected by filtration, and dried under reduced pressure to obtain 485 mg of crude title compound as a yellow powder. The crude product (480 mg) was dissolved in a small volume of aqueous sodium bicarbonate and purified by HPLC (Column, Lichrosorb RP-18; mobile phase, water). The desired fractions were combined (ca. 90 mL) and acidified to pH 2 with dilute hydrochloric acid. The acidified solution was passed through an HP-20 column (50 mL) and washed with water (200 mL). […] Mp >180° C. (dec.).
The free acid of Compound Id (100 mg) was dissolved in a small volume of aqueous sodium bicarbonate and subjected to HPLC (Column, Lichrosorb RP-18; mobile phase, water). The eluate containing the desired product which was concentrated and lyophilized to give 30 mg of the sodium salt of Id as a pale yellow amorphous powder, which was more than 25% soluble in water. Mp 178°-196° C. (dec.).
A solution of diphenylmethyl 7-[(Z)-(2-t-butoxycarbonylprop-2-oxyimino)-2-(2-tritylaminothiazol-4-yl)acetamido]-3-iodomethyl-3-cephem-4-carboxylate [VIId'] (9.0 g, 8.5 mmoles) and thiazolo[4,5-c]pyridine (1.5 g, 11 mmoles) in dimethylsulfoxide (38 mL) was stirred at room temperature for 1 hour. The reaction mixture was poured into ether (500 mL) and, after decantation, the oily precipitate was dissolved in chloroform (300 mL). […]

[7] = test system: M. morganii (1 strain), Ent. cloacae (2 strains) and Ser. marcescens (2 strains); assay: MIC, two-fold serial agar dilution, group (G-)-II; type: cell-based; details: (G-)-II, 5 strains, Mueller-Hinton agar; read-out: Geometric Mean of MIC
In short: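 Two-fold serial agar dilution in Mueller-Hinton agar; test-compound sample weights adjusted for purity of each compound before MIC determination.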

[8] = test system: H. influenzae (7) (ampicillin sensitive); assay: In vitro activity against fastidious bacteria, two-fold serial agar dilution; type: cell-based; details: Haemophilus influenzae, GC agar, 7 strains, read-out: Geometric Mean of MIC
Procedure: as §1

[9] = test system: S. pyogenes A20201; assay: Median protective dose in infected mice; type: in vivo; details: Streptococcus pyogenes, im, immediately after intraperitoneal challenge, read-out: PD50
Procedure: The median protective dose (PD50) of some of the preferred compounds against various microorganisms was determined in mice by intramuscular administration of the test compound immediately after an intraperitoneal bacterial challenge.

| Compound | MIC ([1]; GC agar) | MIC [2] | MIC ([3]; GC agar, ampicillin resistant, 3 strains) | MIC ([4]; GC agar) | MIC [5] | solubility in water ([6]; 250 mg in distilled water 1.0 mL, indicated pH 4.3) | solubility ([6]; water-soluble form (NaHCO3 to pH 6.0, lyophilized)) | MIC [7] | MIC [1] | MIC [8] | MIC [3] | MIC [4] | solubility in water ([6]; free acid) | solubility ([6]; water, sodium salt) | ED50 [9] |
| --- | --- | --- | --- | --- | --- | --- | --- | --- | --- | --- | --- | --- | --- | --- | --- |
| CO/N=C(\C(=O)NC1C(=O)N2C(C(=O)[O-])=C(C[n+]3ccc4scnc4c3)CS[C@H]12)c1csc(N)n1 (stereo partly drawn) [Ia, 7-[(Z)-2-(2-Aminothiazol-4-yl)-2-methoxyiminoacetamido]-3-{(5-thiazolo[4,5-c]pyridinio)methyl}-3-cephem-4-carboxylate] | 0.0125 µg/mL (≈ 0.0235 µM) | 0.0125 µg/mL (≈ 0.0235 µM) | 0.0125 µg/mL (≈ 0.0235 µM) | 0.0125 µg/mL (≈ 0.0235 µM) | 0.0125 µg/mL (≈ 0.0235 µM) | not completely soluble | ≥ 250 mg/mL | 0.16 µg/mL (≈ 0.301 µM) |  |  |  |  |  |  |  |
| CC(C)(O/N=C(\C(=O)NC1C(=O)N2C(C(=O)[O-])=C(C[n+]3ccc4scnc4c3)CS[C@H]12)c1csc(N)n1)C(=O)O (stereo partly drawn) [Id, 7-[(Z)-2-(2-Aminothiazol-4-yl)-2-(2-carboxyprop-2-oxyimino)-acetamido]-3-{(5-thiazolo[4,5-c]pyridinio)methyl}-3-cephem-4-carboxylate] |  | 0.2 µg/mL (≈ 0.331 µM) |  |  | 0.2 µg/mL (≈ 0.331 µM) |  |  | 0.88 µg/mL (≈ 1.46 µM) | 0.1 µg/mL (≈ 0.166 µM) | 0.1 µg/mL (≈ 0.166 µM) | 0.1 µg/mL (≈ 0.166 µM) | 0.1 µg/mL (≈ 0.166 µM) | slightly soluble in water | > 250 mg/mL | 0.23 mg/kg |
